Target: recombinant human SAE enzyme (Homo sapiens (Human), UniProt Q9UBT2)
Test: SAE HTRF enzyme assay
Assay type: biochemical
Conditions: for inhibition at 0.111 µM: read-out: Percent Inhibition
Outline: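 This HTRF format monitors Sumo-Flag–Ubc9-GST thioester formation catalysed by 0.11 nM human SAE with 0.5 μM ATP over 105 min at 24° C. Inhibition is expressed at a single concentration or as IC50.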

[1] = SAE inhibition at compound concentration 0.111 μM
[2] = SAE inhibition, class symbols, legend in nM

recombinant human SAE enzyme, sequence (Q9UBT2 whole entry): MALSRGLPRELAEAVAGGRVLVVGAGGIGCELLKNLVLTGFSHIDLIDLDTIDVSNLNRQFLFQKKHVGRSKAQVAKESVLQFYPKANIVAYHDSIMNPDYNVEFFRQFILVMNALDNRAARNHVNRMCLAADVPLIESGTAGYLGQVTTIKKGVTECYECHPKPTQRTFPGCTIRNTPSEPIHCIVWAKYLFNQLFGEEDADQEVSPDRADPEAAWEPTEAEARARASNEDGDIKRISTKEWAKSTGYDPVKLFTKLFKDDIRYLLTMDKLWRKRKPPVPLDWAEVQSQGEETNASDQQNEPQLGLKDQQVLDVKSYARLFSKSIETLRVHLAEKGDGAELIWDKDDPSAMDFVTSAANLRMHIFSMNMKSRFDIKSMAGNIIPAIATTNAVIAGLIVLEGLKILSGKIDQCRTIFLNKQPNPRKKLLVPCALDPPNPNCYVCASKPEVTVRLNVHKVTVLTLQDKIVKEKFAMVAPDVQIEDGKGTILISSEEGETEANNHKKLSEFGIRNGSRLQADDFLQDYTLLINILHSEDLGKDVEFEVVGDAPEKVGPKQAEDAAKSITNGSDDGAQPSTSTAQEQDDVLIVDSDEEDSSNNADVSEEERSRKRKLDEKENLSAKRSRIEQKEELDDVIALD
recombinant human SAE enzyme, sequence (Q9UBE0 whole entry partner): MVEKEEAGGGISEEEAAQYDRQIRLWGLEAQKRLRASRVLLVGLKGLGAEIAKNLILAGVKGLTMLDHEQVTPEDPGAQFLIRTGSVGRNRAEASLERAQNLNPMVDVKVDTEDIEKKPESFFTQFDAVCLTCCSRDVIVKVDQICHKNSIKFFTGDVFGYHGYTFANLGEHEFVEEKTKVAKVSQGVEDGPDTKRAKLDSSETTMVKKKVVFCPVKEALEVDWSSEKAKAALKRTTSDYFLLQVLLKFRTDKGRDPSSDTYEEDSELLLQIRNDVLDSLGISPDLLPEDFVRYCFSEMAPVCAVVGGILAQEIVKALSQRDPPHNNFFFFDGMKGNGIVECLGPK

Structure (SMILES) | Percent Inhibition (Concentration 0.111 μM) | IC50 (class symbols A/B/C) | inhibition at 0.111 µM (Concentration 0.111 μM) | Percent Inhibition [1] | IC50 [2]
Cc1sc(C(=O)c2cncnc2N[C@@H]2C[C@H](COS(N)(=O)=O)[C@@H](O)C2)cc1[C@@H]1OCCc2ccsc21 (mixture of isomers) [I-269, [(1R,2S,4R)-4-{[5-({4-[(7S)-4,7-dihydro-5H-thieno[2,3-c]pyran-7-yl]-5-methyl-2-thienyl}carbonyl)pyrimidin-4-yl]amino}-2-hydroxycyclopentyl]methyl sulfamate and [(1R,2S,4R)-4-{[5-({4-[(7R)-4,7-dihydro-5H-thieno[2,3-c]pyran-7-yl]-5-methyl-2-thienyl}carbonyl)pyrimidin-4-yl]amino}-2-hydroxycyclopentyl]methyl sulfamate] | 99 | < 10 nM | – | – | –
CC(N)(c1cccc(Cl)c1)c1csc(C(=O)c2cncnc2NC2CC(O)C(COS(N)(=O)=O)C2)c1 (mixture of isomers) [I-12, [(1R,2S,4R)-4-{[5-({4-[(1S)-1-amino-1-(3-chlorophenyl)ethyl]-2-thienyl}carbonyl)pyrimidin-4-yl]amino}-2-hydroxycyclopentyl]methyl sulfamate and [(1R,2S,4R)-4-{[5-({4-[(1R)-1-amino-1-(3-chlorophenyl)ethyl]-2-thienyl}carbonyl)pyrimidin-4-yl]amino}-2-hydroxycyclopentyl]methyl sulfamate] | 99 | < 10 nM | – | – | –
COCc1coc(C(=O)c2cncnc2N[C@@H]2C[C@H](COS(N)(=O)=O)[C@@H](O)C2)c1 [I-223, [(1R,2S,4R)-2-Hydroxy-4-({5-[4-(methoxymethyl)-2-furoyl]pyrimidin-4-yl}amino)cyclopentyl]methyl sulfamate] | – | 100 to 1000 nM | 28% | – | –
NS(=O)(=O)OC[C@H]1C[C@@H](Nc2ncncc2C(=O)c2cc(Cc3cccc(Br)c3)cs2)[C@H](O)[C@@H]1O [I-26, {(1R,2R,3S,4R)-4-[(5-{[4-(3-Bromobenzyl)-2-thienyl]carbonyl}pyrimidin-4-yl)amino]-2,3-dihydroxycyclopentyl}methyl sulfamate] | – | < 10 nM | 100% | – | –
Cc1sc(C(=O)c2cncnc2N[C@@H]2C[C@H](COS(N)(=O)=O)[C@@H](O)C2)cc1[C@@H]1OCCc2ccc(Cl)cc21 [I-257b, [(1R,2S,4R)-4-{[5-({4-[(1R)-7-Chloro-3,4-dihydro-1H-isochromen-1-yl]-5-methyl-2-thienyl}carbonyl)pyrimidin-4-yl]amino}-2-hydroxycyclopentyl]methyl sulfamate] | – | < 10 nM | 99% | – | –
NS(=O)(=O)OC[C@H]1C[C@@H](Nc2ncncc2C(=O)c2cc([C@@]3(c4cccc(Cl)c4)CCCN3)cs2)C[C@@H]1O (single isomer, unassigned) [I-38b, [(1R,2S,4R)-4-{[5-({4-[(2S)-2-(3-chlorophenyl)pyrrolidin-2-yl]-2-thienyl}carbonyl)pyrimidin-4-yl]amino}-2-hydroxycyclopentyl]methyl sulfamate or [(1R,2S,4R)-4-{[5-({4-[(2R)-2-(3-chlorophenyl)pyrrolidin-2-yl]-2-thienyl}carbonyl)pyrimidin-4-yl]amino}-2-hydroxycyclopentyl]methyl sulfamate] | 98 | < 10 nM | – | – | –
C[C@](N)(c1cccc(Cl)c1)c1csc(C(=O)c2cncnc2N[C@@H]2C[C@H](COS(N)(=O)=O)[C@@H](O)C2)c1 (single isomer, unassigned) [I-12b, [(1R,2S,4R)-4-{[5-({4-[(1S)-1-amino-1-(3-chlorophenyl)ethyl]-2-thienyl}carbonyl)pyrimidin-4-yl]amino}-2-hydroxycyclopentyl]methyl sulfamate or [(1R,2S,4R)-4-{[5-({4-[(1R)-1-amino-1-(3-chlorophenyl)ethyl]-2-thienyl}carbonyl)pyrimidin-4-yl]amino}-2-hydroxycyclopentyl]methyl sulfamate] | 100 | < 10 nM | – | – | –
NS(=O)(=O)OC[C@H]1C[C@@H](Nc2ncncc2C(=O)c2cc(Cc3ccccc3)c(Cl)s2)C[C@@H]1O [I-96, [(1R,2S,4R)-4-({5-[(4-benzyl-5-chloro-2-thienyl)carbonyl]pyrimidin-4-yl}amino)-2-hydroxycyclopentyl]methyl sulfamate] | – | – | 97% | – | –
NC(c1cccc(Br)c1)c1cc(C(=O)c2cncnc2NC2CC(O)C(COS(N)(=O)=O)C2)sc1Cl (mixture of isomers) [I-22, [(1R,2S,4R)-4-{[5-({4-[(R)-amino(3-bromophenyl)methyl]-5-chloro-2-thienyl}carbonyl)pyrimidin-4-yl]amino}-2-hydroxycyclopentyl]methyl sulfamate and [(1R,2S,4R)-4-{[5-({4-[(S)-amino(3-bromophenyl)methyl]-5-chloro-2-thienyl}carbonyl)pyrimidin-4-yl]amino}-2-hydroxycyclopentyl]methyl sulfamate] | 99 | < 10 nM | – | – | –
Cc1sc(C(=O)c2cncnc2N[C@@H]2C[C@H](COS(N)(=O)=O)[C@@H](O)C2)cc1[C@H]1SCc2ccc(Cl)cc21 (racemic) [I-359b, [(1RS,2SR,4RS)-4-[5-[4-[(1S)-6-chloro-1,3-dihydro-2-benzothiophene-1-yl]-5-methyl-thiophene-2-carbonyl]pyrimidin-4-yl]amino]-2-hydroxy-cyclopentyl]methyl sulfamate] | – | – | – | 95% | < 10 nM
Cc1sc(C(=O)c2cncnc2N[C@@H]2C[C@H](COS(N)(=O)=O)[C@@H](O)C2)nc1C1OCCc2ccc(Cl)cc21 (single isomer, unassigned) [I-300b, [(1R,2S,4R)-4-{[5-({4-[(1R)-7-chloro-3,4-dihydro-1H-isochromen-1-yl]-5-methyl-1,3-thiazol-2-yl}carbonyl)pyrimidin-4-yl]amino}-2-hydroxycyclopentyl]methyl sulfamate or [(1R,2S,4R)-4-{[5-({4-[(1S)-7-chloro-3,4-dihydro-1H-isochromen-1-yl]-5-methyl-1,3-thiazol-2-yl}carbonyl)pyrimidin-4-yl]amino}-2-hydroxycyclopentyl]methyl sulfamate] | – | – | – | 101% | < 10 nM
NS(=O)(=O)OC[C@H]1C[C@@H](Nc2ncncc2C(=O)c2cc(Cn3ccnc3)cs2)C[C@@H]1O [I-231, {(1R,2S,4R)-2-hydroxy-4-[(5-{[4-(1H-imidazol-1-ylmethyl)-2-thienyl]carbonyl}pyrimidin-4-yl)amino]cyclopentyl}methyl sulfamate] | – | 100 to 1000 nM | 28% | – | –
NS(=O)(=O)OC[C@H]1C[C@@H](Nc2ncncc2C(=O)c2cc(Cn3ccc4cccnc43)cs2)C[C@@H]1O [I-92, {(1R,2S,4R)-2-hydroxy-4-[(5-{[4-(1H-pyrrolo[2,3-b]pyridin-1-ylmethyl)-2-thienyl]carbonyl}pyrimidin-4-yl)amino]cyclopentyl}methyl sulfamate] | – | < 10 nM | 98% | – | –
NS(=O)(=O)OC[C@H]1C[C@@H](Nc2ncncc2C(=O)c2cc([C@H]3OCCc4c(Cl)cccc43)cs2)C[C@@H]1O (mixture of isomers) [I-301, [(1R,2S,4R)-4-{[5-({4-[(1R)-5-chloro-3,4-dihydro-1H-isochromen-1-yl]-2-thienyl}carbonyl)pyrimidin-4-yl]amino}-2-hydroxycyclopentyl]methyl sulfamate and [(1R,2S,4R)-4-{[5-({4-[(1S)-5-chloro-3,4-dihydro-1H-isochromen-1-yl]-2-thienyl}carbonyl)pyrimidin-4-yl]amino}-2-hydroxycyclopentyl]methyl sulfamate] | – | – | – | 99% | < 10 nM
Cc1sc(C(=O)c2cncnc2N[C@@H]2C[C@H](COS(N)(=O)=O)[C@@H](O)C2)cc1[C@H](O)c1cccc(Cl)c1 (single isomer, unassigned) [I-11b, [(1R,2S,4R)-4-{[5-({4-[(R)-(3-chlorophenyl)(hydroxy)methyl]-5-methyl-2-thienyl}carbonyl)pyrimidin-4-yl]amino}-2-hydroxycyclopentyl]methyl sulfamate or [(1R,2S,4R)-4-{[5-({4-[(S)-(3-chlorophenyl)(hydroxy)methyl]-5-methyl-2-thienyl}carbonyl)pyrimidin-4-yl]amino}-2-hydroxycyclopentyl]methyl sulfamate] | 99 | < 10 nM | – | – | –
N[C@@H](c1cccc(Br)n1)c1cc(C(=O)c2cncnc2N[C@@H]2C[C@H](COS(N)(=O)=O)[C@@H](O)[C@H]2O)sc1Cl (single isomer, unassigned) [I-10b, [(1R,2R,3S,4R)-4-{[5-({4-[(R)-amino(6-bromopyridin-2-yl)methyl]-5-chloro-2-thienyl}carbonyl)pyrimidin-4-yl]amino}-2,3-dihydroxycyclopentyl]methyl sulfamate or [(1R,2R,3S,4R)-4-{[5-({4-[(S)-amino(6-bromopyridin-2-yl)methyl]-5-chloro-2-thienyl}carbonyl)pyrimidin-4-yl]amino}-2,3-dihydroxycyclopentyl]methyl sulfamate] | 97 | < 10 nM | – | – | –
NS(=O)(=O)OC[C@H]1C[C@@H](Nc2ncncc2C(=O)c2cc([C@@H]3NCCc4ccc(Br)cc43)c(Cl)s2)C[C@@H]1O (single isomer, unassigned) [I-251a, [(1R,2S,4R)-4-{[5-({4-[(1R)-7-bromo-1,2,3,4-tetrahydroisoquinolin-1-yl]-5-chloro-2-thienyl}carbonyl)pyrimidin-4-yl]amino}-2-hydroxycyclopentyl]methyl sulfamate or [(1R,2S,4R)-4-{([5-({4-[(1S)-7-bromo-1,2,3,4-tetrahydroisoquinolin-1-yl]-5-chloro-2-thienyl}carbonyl)pyrimidin-4-yl]amino}-2-hydroxycyclopentyl]methyl sulfamate] | 100 | < 10 nM | – | – | –
NS(=O)(=O)OC[C@H]1C[C@@H](Nc2ncncc2C(=O)c2cc(COc3cccc(Cl)c3)cs2)C[C@@H]1O [I-120, [(1R,2S,4R)-4-{[5-({4-[(3-chlorophenoxy)methyl]-2-thienyl}carbonyl)pyrimidin-4-yl]amino}-2-hydroxycyclopentyl]methyl sulfamate] | – | < 10 nM | 97% | – | –
